Patent publication US9346815B2, “5-chloro-2-difluoromethoxyphenyl pyrazolopyrimidine compounds, compositions and methods of use thereof” (Genentech, Inc., priority 2014, dated 2016)
Structures can show the parent of a compound that is named as a salt.

Experiments:
[1] = target: isolated recombinant JAK1 kinase domain (Homo sapiens (Human), UniProt P23458); test: JAK1 enzyme assay (Caliper LabChip, peptide phosphorylation); type: biochemical; conditions: isolated recombinant JAK1 kinase domain, 25 μM ATP
Chain of isolated recombinant JAK1 kinase domain (P23458 875-1153): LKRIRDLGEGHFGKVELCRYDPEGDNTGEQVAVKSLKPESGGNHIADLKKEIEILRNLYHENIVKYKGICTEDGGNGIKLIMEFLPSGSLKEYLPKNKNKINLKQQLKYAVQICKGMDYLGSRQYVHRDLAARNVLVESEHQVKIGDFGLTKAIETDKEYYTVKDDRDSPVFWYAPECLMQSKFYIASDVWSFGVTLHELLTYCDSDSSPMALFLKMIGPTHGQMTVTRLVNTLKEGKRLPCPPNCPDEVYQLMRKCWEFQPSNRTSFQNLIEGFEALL

[2] = system: JAK1-dependent STAT6 phosphorylation downstream of IL-13 stimulation in TF-1 human erythroleukemia cells; test: JAK1 pathway assay in TF-1 cells (IL-13-pSTAT6, MSD); type: cell-based; conditions: Homo sapiens, TF-1, TF-1 cells, read-out: IL13-pSTAT6 EC50_TF-1
Procedure, shortened: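 BEAS-2B: complete growth medium, compound 1 hr at 37° C. TF-1: GM-CSF-starved overnight, serum-free OptiMEM, compound 30 min.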

[3] = target: isolated recombinant JAK2 kinase domain (Homo sapiens (Human), UniProt O60674); test: JAK2 enzyme assay (Caliper LabChip, peptide phosphorylation); type: biochemical; conditions: 25 μM ATP
Chain of isolated recombinant JAK2 kinase domain (O60674 849-1124): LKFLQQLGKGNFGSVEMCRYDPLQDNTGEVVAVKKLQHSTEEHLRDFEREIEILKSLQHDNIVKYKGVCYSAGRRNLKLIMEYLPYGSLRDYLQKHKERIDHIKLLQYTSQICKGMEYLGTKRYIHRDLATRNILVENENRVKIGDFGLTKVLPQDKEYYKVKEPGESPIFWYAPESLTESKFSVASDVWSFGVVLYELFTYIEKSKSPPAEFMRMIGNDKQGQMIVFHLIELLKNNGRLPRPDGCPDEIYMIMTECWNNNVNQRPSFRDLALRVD

[4] = system: JAK1-dependent STAT6 phosphorylation downstream of IL-13 stimulation in BEAS-2B human bronchial epithelial cells; test: JAK1 pathway assay in BEAS-2B cells (IL-13-pSTAT6, MSD); type: cell-based; conditions: read-out: IL13-pSTAT6 EC50 (uM)_BEAS-2B
Experimental: JAK1 Pathway Assay in Cell Lines was Carried Out as Follows:
Inhibitor potency (EC50) was determined in cell-based assays designed to measure JAK1 dependent STAT phosphorylation.
In one assay approach, TF-1 human erythroleukemia cells obtained from the American Type Culture Collection (ATCC; Manassas, Va.) were used to measure JAK1-dependent STAT6 phosphorylation downstream of IL-13 stimulation. Prior to use in the assays, TF-1 cells were starved of GM-CSF overnight in OptiMEM medium (Life Technologies, Grand Island, N.Y.) supplemented with 0.5% charcoal/dextran stripped fetal bovine serum (FBS), 0.1 mM non-essential amino acids (NEAA), and 1 mM sodium pyruvate. The assays were run in 384-well plates in serum-free OptiMEM medium using 300,000 cells per well. In a second assay approach, BEAS-2B human bronchial epithelial cells obtained from ATCC were plated at 100,000 cells per well of a 96-well plate one day prior to the experiment. The BEAS-2B assay was run in complete growth medium (bronchial epithelial basal medium plus bulletkit; Lonza; Basel, Switzerland).
Test compounds were serially diluted 1:2 in DMSO and then diluted 1:50 in medium just before use. Diluted compounds were added to the cells, for a final DMSO concentration of 0.2%, and incubated for 30 min (for the TF-1 assay) or 1 hr (for the BEAS-2B assay) at 37° C. Then, cells were stimulated with human recombinant cytokine at their respective EC90 concentrations, as previously determined for each individual lot. Cells were stimulated with IL-13 (R&D Systems, Minneapolis, Minn.) for 15 min at 37° C. The TF-1 cell reactions were stopped by the direct addition of 10× lysis buffer (Cell Signaling Technologies, Danvers, Mass.), whereas the BEAS-2B cell incubations were halted by the removal of medium and addition of 1× lysis buffer. The resultant samples were frozen in the plates at −80° C. Compound mediated inhibition of STAT6 phosphorylation was measured in the cell lysates using MesoScale Discovery (MSD) technology (Gaithersburg, Md.).

Ki [1] [nM]	EC50 [2] [nM]	Ki [3] [nM]	SMILES	EC50 [4] [µM]
0.73	32.3	0.44	Nc1nn2cccnc2c1C(=O)Nc1cn(CC(=O)N2CCNCC2)nc1-c1cc(Cl)ccc1OC(F)F [Example 249, 2-amino-N-[3-[5-chloro-2-(difluoromethoxy)phenyl]-1-(2-oxo-2-piperazin-1-yl-ethyl)pyrazol-4-yl]pyrazolo[1,5-a]pyrimidine-3-carboxamide]	
0.56	18.3	0.41	CN(C)C1CCN(C(=O)c2ccc(-c3nc(-c4cc(Cl)ccc4OC(F)F)c(NC(=O)c4cnn5cccnc45)s3)cc2)CC1 [Example 253, Pyrazolo[1,5-a]pyrimidine-3-carboxylic acid {4-(5-chloro-2-difluoromethoxy-phenyl)-2-[4-(4-dimethylamino-piperidine-1-carbonyl)-phenyl]-thiazol-5-yl}-amide hydrochloride]	
1.63	117	0.77	O=C(Nc1sc(-c2ccncc2)nc1-c1cc(Cl)ccc1OC(F)F)c1cnn2cccnc12 [Example 254, N-[4-[5-chloro-2-(difluoromethoxy)phenyl]-2-(4-pyridyl)thiazol-5-yl]pyrazolo[1,5-a]pyrimidine-3-carboxamide]	
0.56	86.2	0.4	CN(C)Cc1ccc(-c2nc(-c3cc(Cl)ccc3OC(F)F)c(NC(=O)c3cnn4cccnc34)s2)cc1 [Example 255, N-[4-[5-chloro-2-(difluoromethoxy)phenyl]-2-[4-[(dimethylamino)methyl]phenyl]thiazol-5-yl]pyrazolo[1,5-a]pyrimidine-3-carboxamide]	
1.31	92	0.95	O=C(Nc1sc(-c2ccc(CN3CC(F)C3)cc2)nc1-c1cc(Cl)ccc1OC(F)F)c1cnn2cccnc12 [Example 256, N-[4-[5-chloro-2-(difluoromethoxy)phenyl]-2-[4-[(3-fluoroazetidin-1-yl)methyl]phenyl]thiazol-5-yl]pyrazolo[1,5-a]pyrimidine-3-carboxamide]	
2.93	1000	2.1	O=C(Nc1sc(-c2ccc(CN3CC(F)(F)C3)cc2)nc1-c1cc(Cl)ccc1OC(F)F)c1cnn2cccnc12 [Example 257, N-[4-[5-chloro-2-(difluoromethoxy)phenyl]-2-[4-[(3,3-difluoroazetidin-1-yl)methyl]phenyl]thiazol-5-yl]pyrazolo[1,5-a]pyrimidine-3-carboxamide]	
1.17	71	0.72	CN1CCN(c2ccc(-c3nc(-c4cc(Cl)ccc4OC(F)F)c(NC(=O)c4cnn5cccnc45)s3)cc2)CC1 [Example 258, N-[4-[5-chloro-2-(difluoromethoxy)phenyl]-2-[4-(4-methylpiperazin-1-yl)phenyl]thiazol-5-yl]pyrazolo[1,5-a]pyrimidine-3-carboxamide]	
0.93	13	0.56	CN1CCN(C(=O)c2ccc(-c3nc(-c4cc(Cl)ccc4OC(F)F)c(NC(=O)c4cnn5cccnc45)s3)cc2)CC1 [Example 259, N-[4-[5-chloro-2-(difluoromethoxy)phenyl]-2-[4-(4-methylpiperazine-1-carbonyl)phenyl]thiazol-5-yl]pyrazolo[1,5-a]pyrimidine-3-carboxamide]	
7.74	68.5	2.65	CN(C)C1CCN(Cc2nc(-c3cc(Cl)ccc3OC(F)F)c(NC(=O)c3cnn4cccnc34)s2)CC1 [Example 260, Pyrazolo[1,5-a]pyrimidine-3-carboxylic acid [4-(5-chloro-2-difluoromethoxy-phenyl)-2-(4-dimethylamino-piperidin-1-ylmethyl)-thiazol-5-yl]-amide]	
5.84	62.7	1.73	CN1C[C@@H]2CN(Cc3nc(-c4cc(Cl)ccc4OC(F)F)c(NC(=O)c4cnn5cccnc45)s3)C[C@@H]2C1 [Example 262, N-[2-[[(3aR,6aS)-2-methyl-1,3,3a,4,6,6a-hexahydropyrrolo[3,4-c]pyrrol-5-yl]methyl]-4-[5-chloro-2-(difluoromethoxy)phenyl]thiazol-5-yl]pyrazolo[1,5-a]pyrimidine-3-carboxamide]	
2.69	19.8	2.38	CN1C[C@@H]2CN(C(=O)c3nc(-c4cc(Cl)ccc4OC(F)F)c(NC(=O)c4cnn5cccnc45)s3)C[C@@H]2C1 [Example 264, Pyrazolo[1,5-a]pyrimidine-3-carboxylic acid [4-(5-chloro-2-difluoromethoxy-phenyl)-2-(5-methyl-hexahydro-pyrrolo[3,4-c]pyrrole-2-carbonyl)-thiazol-5-yl]-amide]	
3.63	22.8	4.29	CN(C)C1CCN(C(=O)c2nc(-c3cc(Cl)ccc3OC(F)F)c(NC(=O)c3cnn4cccnc34)s2)CC1 [Example 265, N-[4-[5-chloro-2-(difluoromethoxy)phenyl]-2-[4-(dimethylamino)piperidine-1-carbonyl]thiazol-5-yl]pyrazolo[1,5-a]pyrimidine-3-carboxamide]	
0.24	5.9	0.1	Nc1nn2cccnc2c1C(=O)Nc1cn(CC(=O)N2CCC(CO)CC2)nc1-c1cc(Cl)ccc1OC(F)F [Example 266, 2-amino-N-[3-[5-chloro-2-(difluoromethoxy)phenyl]-1-[2-[4-(hydroxymethyl)-1-piperidyl]-2-oxo-ethyl]pyrazol-4-yl]pyrazolo[1,5-a]pyrimidine-3-carboxamide]	
0.66	35.8	0.62	O=C(Nc1cn(CC(=O)N2CCC[C@H]2C(O)CO)nc1-c1cc(Cl)ccc1OC(F)F)c1cnn2cccnc12 (stereo partly drawn) [Example 267, N-[3-[5-chloro-2-(difluoromethoxy)phenyl]-1-[2-[(2S)-2-(1,2-dihydroxyethyl)pyrrolidin-1-yl]-2-oxo-ethyl]pyrazol-4-yl]pyrazolo[1,5-a]pyrimidine-3-carboxamide]	
0.6	16.2	1.11	CN(C)C1CCN(C(=O)c2ccc(-n3cc(NC(=O)c4cnn5cccnc45)c(-c4cc(Cl)ccc4OC(F)F)n3)cc2)CC1 [Example 302, Pyrazolo[1,5-a]pyrimidine-3-carboxylic acid {3-(5-chloro-2-difluoromethoxy-phenyl)-1-[4-(4-dimethylamino-piperidine-1-carbonyl)-phenyl]-1H-pyrazol-4-yl}-amide hydrochloride]	
1.9	78.4	3.28	CN(CC(F)(F)F)C1CCN(C(=O)c2ccc(-n3cc(NC(=O)c4cnn5cccnc45)c(-c4cc(Cl)ccc4OC(F)F)n3)cc2)CC1 [Example 303, N-[3-[5-chloro-2-(difluoromethoxy)phenyl]-1-[4-[4-[methyl(2,2,2-trifluoroethyl)amino]piperidine-1-carbonyl]phenyl]pyrazol-4-yl]pyrazolo[1,5-a]pyrimidine-3-carboxamide]	
			CCOC(=O)CCN1CCN(C(=O)Cn2cc(NC(=O)c3cnn4cccnc34)c(-c3cc(Cl)ccc3OC(F)F)n2)CC1 [Example 332]	0.0692
			O=C(Nc1cn([C@@H]2CNCC[C@H]2O)nc1-c1cc(Cl)ccc1OC(F)F)c1cnn2cccnc12 [Example 360, N-[3-[5-chloro-2-(difluoromethoxy)phenyl]-1-[(3R,4R)-4-hydroxypiperidin-3-yl]-1H-pyrazol-4-yl]pyrazolo[1,5-a]pyrimidine-3-carboxamide]	0.0366
			O=C(Nc1cn([C@H]2CNCC[C@@H]2O)nc1-c1cc(Cl)ccc1OC(F)F)c1cnn2cccnc12 [Example 361, N-[3-[5-chloro-2-(difluoromethoxy)phenyl]-1-[(3S,4S)-4-hydroxypiperidin-3-yl]-1H-pyrazol-4-yl]pyrazolo[1,5-a]pyrimidine-3-carboxamide]	0.0273
			CCN[C@@H](C)Cn1cc(NC(=O)c2cnn3cccnc23)c(-c2cc(Cl)ccc2OC(F)F)n1 [Example 371, N-[3-[5-chloro-2-(difluoromethoxy)phenyl]-1-[(2S)-2-(ethylamino)propyl]-1H-pyrazol-4-yl]pyrazolo[1,5-a]pyrimidine-3-carboxamide]	0.0146
